Results published in US20140242093A1, “METHODS AND COMPOSITIONS FOR MODULATING THE INNATE IMMUNE RESPONSE AND/OR MYOGENESIS IN A MAMMALIAN SUBJECT” (FRED HUTCHINSON CANCER RESEARCH CENTER, priority 2011, published 2014).

Tested on: control human primary myoblasts
Assay: Expression microarray of primary myoblasts transduced with lentivirus carrying DUX4-fl, DUX4-s or GFP
Description: Primary human myoblasts were collected and cultured as previously described (Snider et al., 2010). Primary myoblasts were maintained at or below 70% confluency for proliferation. For differentiation, cells were allowed to reach 95-100% confluency in growth medium. Once confluency was reached, the cells were changed to differentiation medium (F10 media supplemented with 1% horse serum, 10 μg/mL insulin, and 10 μg/mL transferrin, penicillin/streptomycin) and maintained for 4 days. Human RD cells were grown in DMEM in 10% bovine calf serum (Hyclone) and penicillin/streptomycin. The primary myoblasts were transduced with lentivirus carrying DUX-fl, DUX4- or GFP (MOI=15).
Expression microarrays were performed on the transduced cells at 24 hours after transduction as follows. […] Samples were analyzed by Illumina Human Whole Genome microarrays. Probe intensities were corrected, normalized, and summarized by the Lumi package of Bioconductor (Du et al., 2008). Differentially expressed genes were identified by the LIMMA package of Bioconductor (Wettenhall and Smyth, 2004). Gene set enrichment analysis (GSEA) was performed using the Bioconductor GOstats package (Falcon and Gentleman, 2007).

DUX4-fl: full-length DUX4 protein (SEQ ID NO:110), expressed from lentiviral or pCS2 vectors or in vitro translated
GTF2F1 expression fc (Refseq NM_002096.1): 3.208
HLA-A fc (Refseq NM_002116.5): −1.08
HMOX1 expression fc (Refseq NM_002133.1, cultured human skeletal muscle): −1.924
HOXB2 expression fc (Refseq NM_002145.3): 2.202
HSPA6 expression fc (Refseq NM_002155.3): 1.994
ID2 expression fc (Refseq NM_002166.4): 2.336
fc of IFNB1 (expression array) (Refseq NM_002176.2): −0.3894
INSM1 expression fc (Refseq NM_002196.2): 1.801
IRF1 expression fc (Refseq NM_002198.1, cultured human skeletal muscle): −2.643
ISG20 expression fc (Refseq NM_002201.4, cultured human skeletal muscle): −2.94
fc of ITGA3 (expression array) (Refseq NM_002204.1): −1.041
fc of JUNB (expression array) (Refseq NM_002229.2): −1.063
JUP expression fc (Refseq NM_002230.1): 3.172
KPNA2 expression fc (Refseq NM_002266.2): 2.416
fc of LAMC1 (expression array) (Refseq NM_002293.2): −0.5108
fc of LSS (expression array) (Refseq NM_002340.3): −1.045
LTBR fc (Refseq NM_002342.1): −1.155
LUM fc (Refseq NM_002345.3): −1.126
LY6E expression fc (Refseq NM_002346.1, cultured human skeletal muscle): −3.251
fc of MDM2 (expression array) (Refseq NM_002392.2): −0.588
MX1 expression fc (Refseq NM_002462.2, cultured human skeletal muscle): −5.675
MX2 expression fc (Refseq NM_002463.1, cultured human skeletal muscle): −4.066
fc of MYF6 (expression array) (Refseq NM_002469.1): −1.042
MYOD1 fc (Refseq NM_002478.4): −1.113
NFYA expression fc (Refseq NM_002505.3): 2.335
OAS2 expression fc (Refseq NM_002535.2, cultured human skeletal muscle): −2.711
ODC1 expression fc (Refseq NM_002539.1): 3.657
PDE4B fc (Refseq NM_002600.3): −1.143
PFKP fc (Refseq NM_002627.3): −1.106
PIM1 expression fc (Refseq NM_002648.2): 2.215
EXOSC10 expression fc (Refseq NM_002685.2): 1.937
PNN expression fc (Refseq NM_002687.3): 1.949
PRKD1 fc (Refseq NM_002742.2): −1.099
PSMB9 expression fc (Refseq NM_002800.4, cultured human skeletal muscle): −3.137
PTX3 expression fc (Refseq NM_002852.2, cultured human skeletal muscle): −2.744
PYGB expression fc (Refseq NM_002862.3, cultured human skeletal muscle): −2.046
fc of RAB13 (expression array) (Refseq NM_002870.2): −1.032
fc of RBMS1 (expression array) (Refseq NM_002897.3): −0.6159
fc of RBMS2 (expression array) (Refseq NM_002898.2): −0.772
RXRA fc (Refseq NM_002957.3): −1.132
CCL2 expression fc (Refseq NM_002982.3, cultured human skeletal muscle): −2.681
CCL5 expression fc (Refseq NM_002985.2, cultured human skeletal muscle): −2.528
CXCL6 expression fc (Refseq NM_002993.2, cultured human skeletal muscle): −1.994
CXCL5 expression fc (Refseq NM_002994.3, cultured human skeletal muscle): −2.469
SLC2A5 expression fc (Refseq NM_003039.1, cultured human skeletal muscle): −1.958
SLC22A4 fc (Refseq NM_003059.2): −1.134
SNAI2 expression fc (Refseq NM_003068.3, cultured human skeletal muscle): −2.095
fc of SMARCD3 (expression array) (Refseq NM_003078.3): −1.022
SNRNP70 expression fc (Refseq NM_003089.4): 1.885
SOX4 expression fc (Refseq NM_003107.2): 1.809
SPG7 fc (Refseq NM_003119.2): −1.113
SRP19 expression fc (Refseq NM_003135.1): 1.866
fc of STRN (expression array) (Refseq NM_003162.2): −0.2348
THBS1 fc (Refseq NM_003246.2): −1.092
UBA7 expression fc (Refseq NM_003335.2, cultured human skeletal muscle): −2.561
fc of UGCG (expression array) (Refseq NM_003358.1): −0.8891
WEE1 fc (Refseq NM_003390.2): −1.099
WNT5A fc (Refseq NM_003392.3): −1.103
fc of XPO1 (expression array) (Refseq NM_003400.3): −1.04
fc of ZFP36 (expression array) (Refseq NM_003407.2): −1.044
ZKSCAN1 fc (Refseq NM_003439.1): −1.082
fc of Cxorfl2 (expression array) (Refseq NM_003492.1): −1.02
fc of TAGLN2 (expression array) (Refseq NM_003564.1): −1.002
fc of EEA1 (expression array) (Refseq NM_003566.2): −0.963
IFITM1 expression fc (Refseq NM_003641.3, cultured human skeletal muscle): −6.118
fc of VAMP8 (expression array) (Refseq NM_003761.2): −1.02
fc of VAMP4 (expression array) (Refseq NM_003762.3): −1.018
RNGTT expression fc (Refseq NM_003800.3): 2.018
RIPK1 fc (Refseq NM_003804.3): −1.103
TNFSF10 fc (Refseq NM_003810.2): −1.127
TNFRSF14 expression fc (Refseq NM_003820.2, cultured human skeletal muscle): −2.72
fc of RIOK3 (expression array) (Refseq NM_003831.2): −0.5229
TNFRSF10A fc (Refseq NM_003844.2): −1.126
PEX11B fc (Refseq NM_003846.1): −1.142
CES2 expression fc (Refseq NM_003869.4, cultured human skeletal muscle): −2.043
CFLAR expression fc (Refseq NM_003879.3, cultured human skeletal muscle): −1.94
fc of ASAP2 (expression array) (Refseq NM_003887.2): −1.028
CCNA1 expression fc (Refseq NM_003914.2): 7.526
fc of USP13 (expression array) (Refseq NM_003940.2): −0.08799
NPR2 fc (Refseq NM_003995.3): −1.166
fc of OSMR (expression array) (Refseq NM_003999.1): −0.7417
